Results published in US20250034136A1 (Nimbus Wadjet, Inc., priority 2023, published 2025).

Columns and labels:
[1] = target: WRN (BV08), human Werner helicase (Uniprot Q14191, amino acids 517-1235 with L1074F point mutation) (Homo sapiens (Human), UniProt Q14191, L1074F); test: WRN (BV08) ADP-Glo assay; assay type: biochemical; conditions: class symbols A-E, read-out: ADP-Glo_hWRN_IC50
[2] = system: p21 induction in HCT116 cells; test: p21 induction in HCT116 cells; assay type: cell-based; conditions: Homo sapiens, HCT-116, 24 h, HCT116 cells, 24 h compound incubation; read-out: P21_EC50
How it was run: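 HCT116 cells, 2,000/well, treated 24 h at 37 °C with 11-point compound dilutions in duplicate. Fixed, then immunostained for p21 and GAPDH and read by near-IR imaging at 800/700 nm. Normalized to DMSO (low) and reference WRN inhibitor (high) controls; EC50 from non-linear regression.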

Chain of WRN (BV08), human Werner helicase (Uniprot Q14191, amino acids 517-1235 with L1074F point mutation) (Q14191 other isoform, or with tags, fused parts or gaps L1074F (already in the parent)): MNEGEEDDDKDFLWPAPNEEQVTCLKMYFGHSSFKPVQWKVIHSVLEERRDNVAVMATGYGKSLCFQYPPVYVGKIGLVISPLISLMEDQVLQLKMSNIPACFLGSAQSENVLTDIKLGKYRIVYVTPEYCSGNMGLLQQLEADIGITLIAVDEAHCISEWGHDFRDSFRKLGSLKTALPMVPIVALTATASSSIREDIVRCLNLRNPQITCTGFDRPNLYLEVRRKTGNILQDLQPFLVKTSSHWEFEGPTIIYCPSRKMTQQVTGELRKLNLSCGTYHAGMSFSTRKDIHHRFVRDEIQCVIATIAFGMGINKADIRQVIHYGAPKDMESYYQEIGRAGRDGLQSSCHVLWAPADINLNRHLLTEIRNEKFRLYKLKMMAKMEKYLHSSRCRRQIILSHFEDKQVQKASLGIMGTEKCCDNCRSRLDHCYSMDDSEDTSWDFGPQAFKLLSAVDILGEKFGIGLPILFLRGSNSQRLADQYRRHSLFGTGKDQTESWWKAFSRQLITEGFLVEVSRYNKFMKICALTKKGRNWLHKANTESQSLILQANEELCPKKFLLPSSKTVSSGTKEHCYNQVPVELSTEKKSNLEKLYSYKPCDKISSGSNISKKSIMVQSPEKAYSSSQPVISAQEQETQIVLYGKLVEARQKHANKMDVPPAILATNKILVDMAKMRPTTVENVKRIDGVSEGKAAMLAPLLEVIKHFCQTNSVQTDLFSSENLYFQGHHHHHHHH

Compound	IC50 [1] [nM]	EC50 [2] [nM]
CCc1c(N2CCN(C(=O)c3ncnc(C)c3O)CC2)c(=O)c2nc3cc(C)sc3nc2n1CC(=O)NC12CC(C(F)(F)F)(C1)C2 [I-115, 2-(7-ethyl-6-(4-(5-hydroxy-6-methylpyrimidine-4-carbonyl)piperazin-1-yl)-2-methyl-5-oxopyrido[2,3-b]thieno[3,2-e]pyrazin-8(5H)-yl)-N-(3-(trifluoromethyl)bicyclo[1.1.1]pentan-1-yl)acetamide]	5 to 50	> 5000
CCc1c(N2CCN(C(=O)c3ncnc(C)c3O)CC2)c(=O)c2nc3c(nc2n1CC(=O)Nc1ccc(C(F)(F)F)cc1Cl)CCN3C [I-116, N-(2-chloro-4-(trifluoromethyl)phenyl)-2-(6-ethyl-7-(4-(5-hydroxy-6-methylpyrimidine-4-carbonyl)piperazin-1-yl)-1-methyl-8-oxo-1,2,3,8-tetrahydro-5H-pyrido[2,3-b]pyrrolo[2,3-e]pyrazin-5-yl)acetamide]	5 to 50	500 to 2000
CCc1c(N2CCN(C(=O)c3ncnc(C)c3O)CC2)c(=O)c2nc(C=C3CC(OC)C3)cnc2n1CC(=O)Nc1ccc(C(F)(F)F)cc1Cl (stereo not shown) [I-117, N-(2-chloro-4-(trifluoromethyl)phenyl)-2-(6-ethyl-7-(4-(5-hydroxy-6-methylpyrimidine-4-carbonyl)piperazin-1-yl)-2-((3-methoxycyclobutylidene)methyl)-8-oxopyrido[2,3-b]pyrazin-5(8H)-yl)acetamide]	5 to 50	< 500
CCc1c(N2CCN(C(=O)c3ncnc(C)c3O)C[C@@H]2C)c(=O)c2nc(N(C)C)nnc2n1CC(=O)Nc1ccc(C(F)(F)F)cc1Cl [I-118, (S)—N-(2-chloro-4-(trifluoromethyl)phenyl)-2-(3-(dimethylamino)-7-ethyl-6-(4-(5-hydroxy-6-methylpyrimidine-4-carbonyl)-2-methylpiperazin-1-yl)-5-oxopyrido[3,2-e] [1,2,4]triazin-8(5H)-yl)acetamide]	5 to 50	500 to 2000
CCc1c(N2CCN(C(=O)c3ncnc(C)c3O)[C@H]3CC[C@@H]32)c(=O)c2nc(N(C)C)cnc2n1CC(=O)Nc1ccc(OC(F)(F)F)cc1 [I-120, 2-[2-(dimethylamino)-6-ethyl-7-[(1S,6S)-5-(5-hydroxy-6-methylpyrimidine-4-carbonyl)-2,5-diazabicyclo[4.2.0]octan-2-yl]-8-oxo-5H,8H-pyrido[2,3-b]pyrazin-5-yl]-N-[4-(trifluoromethoxy)phenyl]acetamide]	5 to 50	< 500
CCc1c(N2CCN(C(=O)c3ncnc(C)c3O)[C@H]3CC[C@@H]32)c(=O)c2nc(N(C)C)cnc2n1CC(=O)Nc1ccc(C(F)(F)F)cc1F [I-121, 2-(2-(dimethylamino)-6-ethyl-7-((1S,6S)-5-(5-hydroxy-6-methylpyrimidine-4-carbonyl)-2,5-diazabicyclo[4.2.0]octan-2-yl)-8-oxopyrido[2,3-b]pyrazin-5(8H)-yl)-N-(2-fluoro-4-(trifluoromethyl)phenyl)acetamide]	5 to 50	< 500
CCc1c(N2CCN(C(=O)c3ncnc(C)c3O)[C@H]3CCC[C@@H]32)c(=O)c2nc3cc(C)oc3nc2n1CC(=O)Nc1ccc(C(F)(F)F)cc1Cl [I-123, 2-{11-[(4aS,7aS)-4-(5-hydroxy-6-methylpyrimidine-4-carbonyl)-octahydro-1H-cyclopenta[b]pyrazin-1-yl]-12-ethyl-5-methyl-10-oxo-4-oxa-2,8,13-triazatricyclo[7.4.0.0^{3,7}]trideca-1,3(7),5,8,11-pentaen-13-yl}-N-[2-chloro-4-(trifluoromethyl)phenyl]acetamide]	5 to 50	< 500
CCc1c(N2CCN(C(=O)c3ncnc(C)c3O)[C@H]3CC[C@@H]32)c(=O)c2cc(N(C)C)cnc2n1CC(=O)Nc1ccc(C(F)(F)F)cc1Cl [I-124, N-[2-chloro-4-(trifluoromethyl)phenyl]-2-[6-(dimethylamino)-2-ethyl-3-[(1S,6S)-5-(5-hydroxy-6-methylpyrimidine-4-carbonyl)-2,5-diazabicyclo[4.2.0]octan-2-yl]-4-oxo-1,4-dihydro-1,8-naphthyridin-1-yl]acetamide]	5 to 50	< 500
CCc1c(N2CCN(C(=O)c3ncnc(C)c3O)[C@H]3CC[C@@H]32)c(=O)c2nc(C3CC3)cnc2n1CC(=O)Nc1ccc(C(F)(F)F)cc1F [I-125, 2-(2-cyclopropyl-6-ethyl-7-((1S,6S)-5-(5-hydroxy-6-methylpyrimidine-4-carbonyl)-2,5-diazabicyclo[4.2.0]octan-2-yl)-8-oxopyrido[2,3-b]pyrazin-5(8H)-yl)-N-(2-fluoro-4-(trifluoromethyl)phenyl)acetamide]	≤ 5	< 500
CCc1c(N2CCN(C(=O)c3ncnc(C)c3O)[C@H]3CC[C@@H]32)c(=O)c2nc(C)c(C)nc2n1CC(=O)Nc1ccc(C(F)(F)F)cc1Cl [I-126, N-(2-chloro-4-(trifluoromethyl)phenyl)-2-(6-ethyl-7-((1S,6S)-5-(5-hydroxy-6-methylpyrimidine-4-carbonyl)-2,5-diazabicyclo[4.2.0]octan-2-yl)-2,3-dimethyl-8-oxopyrido[2,3-b]pyrazin-5(8H)-yl)acetamide]	5 to 50	< 500
CCc1c(N2CCN(C(=O)c3c(OC)ncc(C)c3O)[C@H]3CC[C@@H]32)c(=O)c2nc(C)c(C)nc2n1CC(=O)Nc1ccc(C(F)(F)F)cc1Cl [I-127, N-[2-chloro-4-(trifluoromethyl)phenyl]-2-{6-ethyl-7-[(1S,6S)-5-(4-hydroxy-2-methoxy-5-methylpyridine-3-carbonyl)-2,5-diazabicyclo[4.2.0]octan-2-yl]-2,3-dimethyl-8-oxo-5H,8H-pyrido[2,3-b]pyrazin-5-yl}acetamide]	5 to 50	< 500
CCc1c(N2CCN(C(=O)c3ncnc(C)c3O)[C@H]3CC[C@@H]32)c(=O)c2nc(C)c(C)nc2n1CC(=O)Nc1ccc(C(F)(F)F)cc1F [I-128, 2-(6-ethyl-7-((1S,6S)-5-(5-hydroxy-6-methylpyrimidine-4-carbonyl)-2,5-diazabicyclo[4.2.0]octan-2-yl)-2,3-dimethyl-8-oxopyrido[2,3-b]pyrazin-5(8H)-yl)-N-(2-fluoro-4-(trifluoromethyl)phenyl)acetamide]	5 to 50	< 500
CCc1c(N2CCN(C(=O)c3ncnc(C)c3O)[C@H]3CC[C@@H]32)c(=O)c2nc(N(C)C)c(C)nc2n1CC(=O)Nc1ccc(C(F)(F)F)cc1F [I-129]	5 to 50	< 500
CCc1c(N2CCN(C(=O)c3ncnc(C)c3O)[C@H]3CCC[C@@H]32)c(=O)c2nc(N(C)C)cnc2n1CC(=O)Nc1ccc(C(F)(F)F)cc1Cl [I-130, 2-{7-[(4aS,7aS)-4-(5-hydroxy-6-methylpyrimidine-4-carbonyl)-octahydro-1H-cyclopenta[b]pyrazin-1-yl]-2-(dimethylamino)-6-ethyl-8-oxo-5H,8H-pyrido[2,3-b]pyrazin-5-yl}-N-[2-chloro-4-(trifluoromethyl)phenyl]acetamide]	5 to 50	< 500
CCc1c(N2CCN(C(=O)c3ncnc(C)c3O)CC2)c(=O)c2nc(N(C)C3CCC3)cnc2n1CC(=O)Nc1ccc(C(F)(F)F)cc1Cl [I-131, N-[2-chloro-4-(trifluoromethyl)phenyl]-2-{2-[cyclobutyl(methyl)amino]-6-ethyl-7-[4-(5-hydroxy-6-methylpyrimidine-4-carbonyl)piperazin-1-yl]-8-oxo-5H,8H-pyrido[2,3-b]pyrazin-5-yl}acetamide]	5 to 50	500 to 2000
CCc1c(N2CCN(C(=O)c3ncnc(C)c3O)CC2)c(=O)c2nc(N(C)C)cnc2n1CC(=O)Nc1ccc(S(F)(F)(F)(F)F)cc1Cl [I-132, N-[2-chloro-4-(pentafluoro-lambda6-sulfanyl)phenyl]-2-[2-(dimethylamino)-6-ethyl-7-[4-(5-hydroxy-6-methylpyrimidine-4-carbonyl)piperazin-1-yl]-8-oxo-5H,8H-pyrido[2,3-b]pyrazin-5-yl]acetamide]	5 to 50	< 500
CCc1c(N2CCN(C(=O)c3ncnc(C)c3O)CC2)c(=O)c2nc(N(C)C)cnc2n1CC(=O)Nc1c(F)cc(C(F)(F)F)cc1Cl [I-133, N-[2-chloro-6-fluoro-4-(trifluoromethyl)phenyl]-2-[2-(dimethylamino)-6-ethyl-7-[4-(5-hydroxy-6-methylpyrimidine-4-carbonyl)piperazin-1-yl]-8-oxo-5H,8H-pyrido[2,3-b]pyrazin-5-yl]acetamide]	5 to 50	> 5000
CCc1c(N2CCN(C(=O)c3ncnc(C)c3O)CC2)c(=O)c2nc(/C=C/C(=O)N(C)C)cnc2n1CC(=O)Nc1ccc(C(F)(F)F)cc1Cl [I-134, (2E)-3-[5-({[2-chloro-4-(trifluoromethyl)phenyl]carbamoyl}methyl)-6-ethyl-7-[4-(5-hydroxy-6-methylpyrimidine-4-carbonyl)piperazin-1-yl]-8-oxo-5H,8H-pyrido[2,3-b]pyrazin-2-yl]-N,N-dimethylprop-2-enamide]	50 to 100	> 5000
CCc1c(N2CCN(C(=O)c3ncnc(C)c3O)CC2)c(=O)c2nc(-c3ccnn3C)cnc2n1CC(=O)Nc1ccc(C(F)(F)F)cc1Cl [I-137, N-[2-chloro-4-(trifluoromethyl)phenyl]-2-{6-ethyl-7-[4-(5-hydroxy-6-methylpyrimidine-4-carbonyl)piperazin-1-yl]-2-(1-methyl-1H-pyrazol-5-yl)-8-oxo-5H,8H-pyrido[2,3-b]pyrazin-5-yl}acetamide]	5 to 50	> 5000
CCc1c(N2CCN(C(=O)c3ncnc(C)c3O)CC2)c(=O)c2nc(/C=C/C(C)(C)O)cnc2n1CC(=O)Nc1ccc(C(F)(F)F)cc1Cl [I-138, N-[2-chloro-4-(trifluoromethyl)phenyl]-2-{6-ethyl-2-[(1E)-3-hydroxy-3-methylbut-1-en-1-yl]-7-[4-(5-hydroxy-6-methylpyrimidine-4-carbonyl)piperazin-1-yl]-8-oxo-5H,8H-pyrido[2,3-b]pyrazin-5-yl}acetamide]	5 to 50	> 5000
